This is an account of results in patent publication US20230181700A1 (priority 2021, published 2023).

What is called IC50 is the concentration that inhibits the measured activity by half.

The subject of this assay is Vero cells. It is filed as cell-based. To be noted: read-out: IC50 of toxicity.

Turning to `C[C@@H]1C[C@@H]([C@H](O)CC2CC(=O)NC(=O)C2)C(=O)[C@@H](C)C1` [cyclohexamide], the IC50 is 200 nM.
